{
  "source": "patent EP0765662A1",
  "about": "“HIV GROWTH INHIBITORY COMPOSITION” (Kochi, Mutsuyuki, priority 1994, dated 1995)",
  "key": {"[1]": {"assay": "Cytotoxicity of SBA, trypan blue dye-exclusion, A3.01 cells", "format": "cell-based", "conditions": "human, read-out: Rate of survival of the cells (%)", "source_text": "It is known that stimulation of HIV gene by TPA and tumor necrosis factor (TNF) can activate the HIV gene which is latent as the HIV-provirus within the T-cells as infected with HIV and said stimulation can thus strongly induce the progresses of sprouting and release of the viral particles of HIV. It is considered that said activation of the HIV gene for the occurrence or developement of HIV virus would be caused by such an oxidation stress which is brought about within the host cells by any stimulation given from outside the host cells as above-mentioned. Further, such discoveries and observations have been reported that NFkB, which is a nuclear factor wthin the cells, can play important part in the proliferation of HIV virus, and that the oxidation-reduction status of the NFkB is important for the activation of this factor NFkB, and so on. […] (a) Test of examining cytotoxicity of SBA against various kinds of T-cells A3.01 cells (HAT-susceptible CEM cell strain), A3.01 cells as infected with HIV, and the above-mentioned U1 cells were cultivated, respectively, in an improved RPM1-1640 media containing SBA added at different concentrations. After the cultivation, the number of the cells under test which still survived was determined under a polarizing microscope by a trypan blue dye-exclusion method."}, "[2]": {"system": "HIVBRU", "assay": "Formation of giant cells from HIV-infected Molt-4 cells (mixed cultivation, microscopic observation)", "format": "cell-based", "conditions": "mixed cultivation of HIV-infected and HIV-non-infected Molt-4 cells; 20 hours of the cultivation; read-out: concentration of SBA that can inhibit the formation of the giant cells", "description": "In the tests above, the replication of the viral particles of HIV was examined in terms of the amount of the p24 antigen protein produced and appearing in the culture supernatant from the cultivated cells. Thus, the amount of the p24 antigen produced was measured periodically over 6 days after the A3.01 cells were infested with HIV. It was then observed that in the absence of SBA, the replication of the viral particles of HIV was induced in the A3.01 cells by stimulation with 10 units/ml of TNF-α added. […] Thus, the effective amount of SBA has the activity to inhibit the replication of the viral particles of HIV within the cells to an extent as same as AZT, and from this it is expected that SBA is useful similarly to AZT for the therapeutic treatments of AIDS. (d) Tests for evaluating an inhibitory activity of SBA to the formation of giant cells from HIV-infected Molt-4 cells In a similar manner to that in the above Test (c), Molt-4 cells (a CD4-positive human T-cell strain) were infected with AIDS virus, HIVBRU. Thereafter, The HIV-infected Molt-4 cells were mixed with such Molt-4 cells which had no HIV-infection. And the mixture of these cells were cultivated at a high density of the mixed cells in the above-mentioned improved RPM1-1640 medium containing SBA at its different concentrations. […]"}},
  "note": "Structures can show the parent of a compound that is named as a salt. Where two headings read alike, the source gives them in different places.",
  "data": [
    {"smiles": "O=C1O[C@H]([C@@H]2COC(c3ccccc3)O2)C(O)=C1O", "note": "(stereo partly drawn) [SBA, 5,6-O-benzylidene-L-ascorbic acid mono-sodium salt]", "values": [
      {"measurement": "viability", "setting": "[1]; SBA 100 µg/ml", "value": 97, "unit": "%"},
      {"measurement": "viability", "setting": "[1]; SBA 1000 µg/ml", "value": "~70", "unit": "%"},
      {"measurement": "minimal effective concentration", "setting": "[2]", "value": "≥ 10", "unit": "µg/mL"}
    ]}
  ]
}
